Experimental data reported in ChEMBL document CHEMBL1146129, “First dual M3 antagonists-PDE4 inhibitors: synthesis and SAR of 4,6-diaminopyrimidine derivatives” (Bioorg Med Chem Lett, 2006).

Tests used:
[1] = target: T1, Muscarinic acetylcholine receptor M3 (Homo sapiens, UniProt P20309); assay: biochemical; assay type: cell-based, CHO
Target sequence in this assay (P20309 whole entry): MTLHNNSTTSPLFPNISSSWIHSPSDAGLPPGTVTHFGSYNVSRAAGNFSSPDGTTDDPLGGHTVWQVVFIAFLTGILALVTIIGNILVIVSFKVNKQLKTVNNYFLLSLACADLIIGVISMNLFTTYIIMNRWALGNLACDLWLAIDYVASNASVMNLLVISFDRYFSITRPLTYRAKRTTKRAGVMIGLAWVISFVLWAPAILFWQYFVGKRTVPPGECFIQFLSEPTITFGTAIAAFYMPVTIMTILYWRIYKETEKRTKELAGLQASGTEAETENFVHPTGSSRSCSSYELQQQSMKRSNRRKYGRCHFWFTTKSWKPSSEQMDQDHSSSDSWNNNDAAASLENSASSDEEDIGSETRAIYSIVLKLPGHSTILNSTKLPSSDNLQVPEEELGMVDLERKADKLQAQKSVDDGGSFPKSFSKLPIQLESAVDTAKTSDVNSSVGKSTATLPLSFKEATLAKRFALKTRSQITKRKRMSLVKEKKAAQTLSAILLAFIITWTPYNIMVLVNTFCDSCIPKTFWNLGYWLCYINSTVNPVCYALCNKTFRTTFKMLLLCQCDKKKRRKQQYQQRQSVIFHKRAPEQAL

[2] = buffer, pH 7.4
Phosphodiesterase 4 = Phosphodiesterase 4 (Homo sapiens, UniProt P27815+Q08499+Q07343+Q08493); assay type: functional, cell-based; conditions: u-937
Description: Inhibition of PDE4 activity in U937 cells

[3] = target: T1, Muscarinic acetylcholine receptor M3; assay: Displacement of [3H]methylscopolamine from recombinant human muscarinic M3 receptors expressed in CHO cells at 10 um; assay type: cell-based
Target sequence in this assay (P20309 whole entry, looked up): as the sequence (P20309 whole entry) above

Description for physchem: Dissociation constant, pKa of the compound

Row | Ki [1] [nM] | LogK-IAMex [2] | IC50 (Phosphodiesterase 4) [nM] | pKa (physchem) | inhibition [3] [%] | Compound
1 | 790 | 3.89 | 2000 |  |  | Cc1c(NC2CC2)nc(C2CC2)nc1N1CCC(Cc2ccccc2)CC1
2 | 10 |  | 1300 |  |  | C1CCCN(c2nc(C3CC3)nc3c2CCCCN3)CC1
3 | 200 | 2.36 | 4000 |  |  | Cc1c(NCc2ccccc2)nc(C2CC2)nc1NC1CC1
4 | 79 |  | 1260 |  |  | Cc1c(NC2CC2)nc(C2CCCC2)nc1N1CCCCCC1
5 | 7.9 |  | 7900 |  |  | Cc1c(N[C@H]2C[C@@H]2C)nc(C2CC2)nc1N1CCCCCC1
6 | 16 | 2.8 | 630 |  |  | Cc1c(NC2CC2)nc(C2CC2)nc1N1CCC(C)CC1
7 | 398 |  | 2500 | 6.47 |  | COc1c(NC2CC2)nc(C2CC2)nc1N1CCSCC1
8 | 251 | 2.7 | 400 |  |  | Cc1c(NC2CC2)nc(C2CC2)nc1N(C)Cc1ccccc1
9 | 16 | 3.05 | 1600 |  |  | Cc1c(NC2CC2)nc(C2CC2)nc1N1CCCCCCC1
10 | 100 | 2.36 | 1600 |  |  | Cc1c(NC2CC2)nc(C2CC2)nc1N1CCCC1
11 | 13 | 2.5 | 500 |  |  | Cc1c(NC2CC2)nc(C2CC2)nc1N1CCCCC1
12 | 50 | 2.5 | 400 |  |  | Cc1c(NC2CC2)nc(C2CC2)nc1N1CCC(F)(F)CC1
13 | 32 |  | 3200 |  |  | Cc1c(NC2CC2)nc([C@@H]2C[C@H]2C)nc1N1CCCCCC1
14 | 501 |  | 1000 |  |  | Cc1c(NC2CC2)nc(Cc2ccccc2)nc1N1CCCCCC1
15 | 501 | 1.2 | 4000 |  |  | Cc1c(NC2CC2)nc(C2CC2)nc1N1CCC(O)CC1
16 | 2510 |  | 1260 | 4.64 |  | O=[N+]([O-])c1c(NC2CC2)nc(C2CC2)nc1N1CCCCCC1
17 | 32 | 2.37 | 790 |  |  | Cc1c(NC2CC2)nc(C2CC2)nc1N1CC=CCC1
18 | 316 | 2.97 | 500 |  |  | Cc1c(NC2CC2)nc(C2CC2)nc1N1CCc2ccccc2C1
19 | 79 | 2.7 | 400 |  |  | C=C1CCN(c2nc(C3CC3)nc(NC3CC3)c2C)CC1
20 | 126 | 2.21 | 6300 |  |  | Cc1c(NCc2cccs2)nc(C2CC2)nc1NC1CC1
21 | 63 | 2.38 | 2000 |  |  | Cc1c(NCc2c(F)cccc2F)nc(C2CC2)nc1NC1CC1
22 | 25 |  | 2500 |  |  | Cc1c(NC2CC2)nc(C(C)C)nc1N1CCCCCC1
23 |  | 1.45 | 790 |  | < 50 | Cc1c(NC2CC2)nc(C2CC2)nc1N1CCOCC1

Row | Ki [1] [nM] | LogK-IAMex [2] | IC50 (Phosphodiesterase 4) [nM] | pKa (physchem) | inhibition [3] [%] | Compound
24 | 6.3 | 3.11 | 500 |  |  | Cc1c(NC2CC2)nc(C2CC2)nc1N1CC2CCC(C2)C1
25 | 79 |  | 790 | 7.15 |  | Nc1c(NC2CC2)nc(C2CC2)nc1N1CCCCCC1
26 | 10 |  | 6300 |  |  | Cc1c(NC2(C)CC2)nc(C2CC2)nc1N1CCCCCC1
27 | 126 |  | 2000 |  |  | Cc1c(NC2CC2)nc(CC2CC2)nc1N1CCCCCC1
28 | 25 | 3.02 | 320 |  |  | Cc1c(NC2CC2)nc(C2CC2)nc1N1CCC(C)(C)CC1
29 | 50 | 3.21 | 630 |  |  | CCC1CCN(c2nc(C3CC3)nc(NC3CC3)c2C)CC1
30 | 7.9 |  | 2000 |  |  | Cc1c(NC2CCC2)nc(C2CC2)nc1N1CCCCCC1
31 | 158 | 3.66 | 790 |  |  | Cc1c(NC2CC2)nc(C2CC2)nc1N1CCC2(CCCC2)CC1
32 | 398 |  | 2500 |  |  | C[C@@H]1C[C@H]1c1nc(NC2CC2)cc(N2CCCCCC2)n1
33 | 63 |  | 400 | 8.03 |  | c1c(NC2CC2)nc(C2CC2)nc1N1CCCCCC1
34 | 316 | 2.71 | 2500 |  |  | Cc1c(NC2CCCCC2)nc(C2CC2)nc1NC1CC1
35 | 3200 | 1.35 | 3200 |  |  | Cc1c(NC2CC2)nc(C2CC2)nc1N1CCC(=O)CC1
36 | 316 |  | 630 | 6.21 |  | Brc1c(NC2CC2)nc(C2CC2)nc1N1CCCCCC1
37 | 79 | 2.57 | 2500 |  |  | Cc1c(NCCc2cccs2)nc(C2CC2)nc1NC1CC1
38 | 79 | 2.14 | 320 | 6.99 |  | Cc1c(NC2CC2)nc(C2CC2)nc1N1CCSCC1
39 | 251 |  | 630 | 6.44 |  | Fc1c(NC2CC2)nc(C2CC2)nc1N1CCCCCC1
40 | 100 | 2.94 | 2000 |  |  | Cc1c(NC2CC2)nc(C2CC2)nc1N1CCC(C(F)(F)F)CC1
41 | 501 | 1.57 | 630 |  |  | Cc1c(NC2CC2)nc(C2CC2)nc1N1CCC(CO)CC1
42 | 40 |  | 2000 |  |  | Cc1c(NC2CC2)nc(C2CCC2)nc1N1CCCCCC1
43 | 50 |  | 500 |  |  | C1CCCN(c2nc(C3CC3)nc3c2CCCN3)CC1
44 |  |  | 250 | 5.27 | < 50 | Fc1c(NC2CC2)nc(C2CC2)nc1N1CCSCC1
45 | 398 | 2.98 | 2000 |  |  | Cc1c(NC2CCCCCC2)nc(C2CC2)nc1NC1CC1

Row | Compound | Ki [1] [nM] | LogK-IAMex [2] | IC50 (Phosphodiesterase 4) [nM] | pKa (physchem) | inhibition [3] [%]
46 | CCc1c(NC2CC2)nc(C2CC2)nc1N1CCSCC1 | 100 |  | 1600 | 6.78 | 
